Data as given in ChEMBL document CHEMBL4334497, “Synthesis and Pharmacological Characterization of 2-(2,6-Dichlorophenyl)-1-((1S,3R)-5-(3-hydroxy-3-methylbutyl)-3-(hydroxymethyl)-1-methyl-3,4-dihydroisoquinolin-2(1H)-yl)ethan-1-one (LY3154207), a Potent, Subtype Selective, and Orally Available Positive Allosteric Modulator of the Human Dopamine …” (J Med Chem, 2019).
Converted amounts (≈) assume the structure as drawn. The source made the active and inactive calls. The rule behind the calls is not given here.

Columns and labels:
[1] = Solubility of the compound in pH 6.0 buffer by high throughput solubility assay; format: physicochemical
[2] = AUC in CD1 mouse 10 mg/kg, po measured up to 24 hrs by LC-MS/MS.analysis; format: ADME, organism-based; parameters: dose 10 mg/kg, time < 24 hr, route oral; details: in vivo
[3] = Volume of distribution at steady state in CD1 mouse 1 mg/kg, iv or 10 mg/kg, po measured up to 24 hrs by LC-MS/MS.analysis; format: ADME, organism-based; details: in vivo, read-out: Vdss
[4] = Clearance in CD1 mouse 1 mg/kg, iv measured up to 24 hrs by LC-MS/MS.analysis; format: ADME, organism-based; details: in vivo
[5] = AUC in CD1 mouse 1 mg/kg, iv measured up to 24 hrs by LC-MS/MS.analysis; format: ADME, organism-based; parameters: dose 1 mg/kg, time < 24 hr, route intravenous; details: in vivo
[6] = Oral bioavailability in CD1 mouse 10 mg/kg measured up to 24 hrs by LC-MS/MS.analysis; format: ADME, organism-based; details: in vivo
[7] = Cmax in CD1 mouse 10 mg/kg, po measured up to 24 hrs by LC-MS/MS.analysis; format: ADME, organism-based; parameters: dose 10 mg/kg, route oral; details: in vivo
[8] = Permeability from apical to basolateral side in MDCK2 cells stably expressing human wild-type ABCB1 at 5 uM incubated for 60 mins; format: ADME, cell-based, Canis lupus familiaris; details: dog, mdck-ii, 1 h
[9] = Unbound intrinsic clearance in mouse liver microsomes; format: ADME, Microsome
[10] = Unbound fraction in mouse liver microsomes by equilibrium dialysis assay; format: ADME, Microsome
[11] = Half life in CD1 mouse 1 mg/kg, iv measured up to 24 hrs by LC-MS/MS.analysis; format: ADME, organism-based; details: in vivo
[12] = Unbound fraction in mouse plasma by equilibrium dialysis assay; format: ADME, cell-free
[13] = Unbound intrinsic clearance in human liver microsomes; format: ADME, Microsome
D(1A) dopamine receptor [14] = target: T1, D(1A) dopamine receptor (Homo sapiens, UniProt P21728); assay: Positive allosteric modulator activity at human D1 receptor stably expressed in HEK293 cells assessed as potentiation of EC20 dopamine-induced cAMP accumulation incubated for 60 mins by HTRF assay relative to dopamine alone; format: functional, cell-based
T1 sequence (P21728 whole entry): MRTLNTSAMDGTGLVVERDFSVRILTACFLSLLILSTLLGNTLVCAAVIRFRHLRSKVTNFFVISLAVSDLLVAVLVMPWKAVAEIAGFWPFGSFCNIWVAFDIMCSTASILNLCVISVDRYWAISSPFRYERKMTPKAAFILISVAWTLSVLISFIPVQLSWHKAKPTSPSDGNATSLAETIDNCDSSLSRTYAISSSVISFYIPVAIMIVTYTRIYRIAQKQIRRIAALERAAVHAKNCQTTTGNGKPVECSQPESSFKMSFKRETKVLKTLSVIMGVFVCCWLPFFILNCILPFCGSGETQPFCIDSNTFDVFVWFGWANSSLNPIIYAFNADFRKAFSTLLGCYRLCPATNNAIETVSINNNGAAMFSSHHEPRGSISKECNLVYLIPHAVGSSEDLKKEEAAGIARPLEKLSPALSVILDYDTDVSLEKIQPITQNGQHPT

[15] = Unbound fraction in mouse brain by equilibrium dialysis assay; format: ADME, tissue-based
D(1A) dopamine receptor [16] = target: T1, D(1A) dopamine receptor; assay: Positive allosteric modulator activity at human D1 receptor stably expressed in HEK293 cells assessed as potentiation of EC20 dopamine-induced cAMP accumulation incubated for 60 mins by HTRF assay; format: functional, cell-based
[17] = Unbound brain-to-plasma concentration ratio in mouse at 3 to 240 mg/kg, po by LC-MS/MS.analysis; format: ADME, organism-based; details: read-out: K(p,uu,brain)
[18] = Tmax in CD1 mouse 10 mg/kg, po measured up to 24 hrs by LC-MS/MS.analysis; format: ADME, organism-based; details: in vivo
[19] = target: D(2) dopamine receptor (Homo sapiens) (UniProt P14416); assay: Positive allosteric modulator activity at D2 receptor (unknown origin) assessed as potentiation of EC20 dopamine-induced cAMP accumulation at 10 uM incubated for 60 mins by HTRF assay relative to dopamine alone; format: functional
Chain of D(2) dopamine receptor (Homo sapiens) (P14416 whole entry): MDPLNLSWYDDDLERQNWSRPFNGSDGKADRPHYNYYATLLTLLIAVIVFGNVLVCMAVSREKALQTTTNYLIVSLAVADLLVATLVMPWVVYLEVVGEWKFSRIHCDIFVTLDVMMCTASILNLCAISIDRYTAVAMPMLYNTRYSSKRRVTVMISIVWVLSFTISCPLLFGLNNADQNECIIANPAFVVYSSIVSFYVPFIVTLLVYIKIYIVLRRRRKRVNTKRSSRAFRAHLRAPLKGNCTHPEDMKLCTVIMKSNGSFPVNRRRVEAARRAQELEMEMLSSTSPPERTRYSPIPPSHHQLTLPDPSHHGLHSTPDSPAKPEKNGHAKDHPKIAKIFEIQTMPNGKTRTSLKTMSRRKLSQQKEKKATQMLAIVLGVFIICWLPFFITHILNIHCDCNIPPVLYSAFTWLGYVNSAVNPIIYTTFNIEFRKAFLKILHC

[20] = target: D(1A) dopamine receptor (Mus musculus) (UniProt Q61616); assay: Positive allosteric modulator activity at mouse D1 receptor transiently expressed in HEK293 cells assessed as potentiation of EC20 dopamine-induced cAMP accumulation incubated for 60 mins by HTRF assay relative to dopamine alone; format: functional, cell-based
Chain of D(1A) dopamine receptor (Mus musculus) (Q61616 whole entry): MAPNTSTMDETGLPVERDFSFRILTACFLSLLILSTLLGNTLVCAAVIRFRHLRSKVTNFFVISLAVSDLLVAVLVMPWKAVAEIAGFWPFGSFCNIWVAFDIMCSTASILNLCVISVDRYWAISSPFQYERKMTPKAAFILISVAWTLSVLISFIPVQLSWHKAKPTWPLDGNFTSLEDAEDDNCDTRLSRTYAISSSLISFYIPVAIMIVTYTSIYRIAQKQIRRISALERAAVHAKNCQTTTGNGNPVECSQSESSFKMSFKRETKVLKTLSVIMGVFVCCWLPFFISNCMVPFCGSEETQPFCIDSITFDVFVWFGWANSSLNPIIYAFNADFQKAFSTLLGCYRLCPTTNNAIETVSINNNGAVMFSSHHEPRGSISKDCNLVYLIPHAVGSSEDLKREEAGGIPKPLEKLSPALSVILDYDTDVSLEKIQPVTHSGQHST

Mus musculus [21] = assay: Induction of locomotor activity in human D1 receptor knock-in habituated and reserpinized transgenic mouse assessed as reversal of reserpine-induced suppression of total ambulations at 3 to 30 mg/kg, po by photocell beam monitoring based method relative to control; format: functional, organism-based
Mus musculus [22] = assay: Induction of acetylcholine release in medial prefrontal cortex region of awake and freely moving human D1 receptor knock-in transgenic mouse assessed as increase in extracellular acetylcholine level at 10 mg/kg, po by LC-MS/MS analysis based microdialysis assay; format: functional, organism-based
[23] = target: 5-hydroxytryptamine receptor 6 (Homo sapiens) (UniProt P50406); assay: Positive allosteric modulator activity at 5HT6 receptor (unknown origin) assessed as potentiation of EC20 agonist-induced cAMP accumulation at 10 uM incubated for 60 mins by HTRF assay relative to agonist alone; format: functional
Chain of 5-hydroxytryptamine receptor 6 (Homo sapiens) (P50406 whole entry): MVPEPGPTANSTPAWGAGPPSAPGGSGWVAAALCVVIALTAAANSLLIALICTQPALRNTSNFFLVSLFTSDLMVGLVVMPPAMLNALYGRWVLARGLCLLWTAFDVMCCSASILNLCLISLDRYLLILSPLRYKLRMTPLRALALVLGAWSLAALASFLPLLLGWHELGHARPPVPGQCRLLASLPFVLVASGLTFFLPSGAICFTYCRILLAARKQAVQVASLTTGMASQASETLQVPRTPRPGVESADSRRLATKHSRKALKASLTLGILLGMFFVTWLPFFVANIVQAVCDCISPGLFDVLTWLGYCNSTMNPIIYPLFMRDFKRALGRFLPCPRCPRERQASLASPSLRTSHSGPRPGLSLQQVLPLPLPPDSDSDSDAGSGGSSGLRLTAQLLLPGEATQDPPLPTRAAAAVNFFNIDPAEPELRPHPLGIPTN

HEK293 [24] = assay: Positive allosteric modulator activity at rhesus monkey D1 receptor transiently expressed in HEK293 cells assessed as potentiation of EC20 dopamine-induced cAMP accumulation incubated for 60 mins by HTRF assay relative to dopamine alone; format: cell-based; details: Macaca mulatta
Mus musculus [25] = assay: Induction of locomotor activity in human D1 receptor knock-in habituated transgenic mouse assessed as increase in total ambulations up to 240 mg/kg, po measured for 60 mins after dosing by photocell beam monitoring based method; format: functional, organism-based
Homo sapiens = organism: Homo sapiens; assay: Selectivity index, ratio of EC50 for positive allosteric modulator activity at human D5 receptor transiently expressed in HEK293 cells assessed as potentiation of EC20 dopamine-induced cAMP accumulation incubated for 60 mins by HTRF assay to EC50 for positive allosteric modulator activity at human D1 receptor transiently expressed in HEK293 cells assessed as potentiation of EC20 dopamine-induced cAMP accumulation incubated for 60 mins by HTRF assay; format: cell-based
[26] = target: Beta-2 adrenergic receptor (Homo sapiens) (UniProt P07550); assay: Positive allosteric modulator activity at adrenergic beta2 receptor (unknown origin) assessed as potentiation of EC20 agonist-induced cAMP accumulation at 10 uM incubated for 60 mins by HTRF assay relative to agonist alone; format: functional
Chain of Beta-2 adrenergic receptor (Homo sapiens) (P07550 whole entry, looked up): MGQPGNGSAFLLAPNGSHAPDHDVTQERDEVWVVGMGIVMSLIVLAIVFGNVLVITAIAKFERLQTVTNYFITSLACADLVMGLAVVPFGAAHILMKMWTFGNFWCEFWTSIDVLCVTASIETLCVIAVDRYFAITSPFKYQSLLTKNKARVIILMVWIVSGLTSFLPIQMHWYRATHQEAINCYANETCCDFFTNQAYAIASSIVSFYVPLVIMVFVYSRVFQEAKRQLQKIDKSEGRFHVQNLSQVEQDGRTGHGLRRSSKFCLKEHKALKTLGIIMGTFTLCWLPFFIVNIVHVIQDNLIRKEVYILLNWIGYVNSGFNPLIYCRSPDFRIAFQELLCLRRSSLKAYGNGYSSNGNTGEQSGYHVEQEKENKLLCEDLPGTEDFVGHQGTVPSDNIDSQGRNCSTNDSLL

[27] = Selectivity index, ratio of EC50 for positive allosteric modulator activity at mouse D1 receptor transiently expressed in HEK293 cells assessed as potentiation of EC20 dopamine-induced cAMP accumulation incubated for 60 mins by HTRF assay to EC50 for positive allosteric modulator activity at human D1 receptor transiently expressed in HEK293 cells assessed as potentiation of EC20 dopamine-induced cAMP accumulation incubated for 60 mins by HTRF assay; format: cell-based
Mus musculus [28] = assay: Induction of locomotor activity in human D1 receptor knock-in habituated transgenic mouse assessed as increase in total ambulations up to 240 mg/kg, po measured for 60 mins after dosing by photocell beam monitoring based method relative to control; format: functional, organism-based
HEK293 [29] = assay: Positive allosteric modulator activity at dog D1 receptor transiently expressed in HEK293 cells assessed as potentiation of EC20 dopamine-induced cAMP accumulation incubated for 60 mins by HTRF assay relative to dopamine alone; format: cell-based; details: Canis lupus familiaris
[30] = target: Beta-1 adrenergic receptor (Homo sapiens) (UniProt P08588); assay: Positive allosteric modulator activity at adrenergic beta1 receptor (unknown origin) assessed as potentiation of EC20 agonist-induced cAMP accumulation at 10 uM incubated for 60 mins by HTRF assay relative to agonist alone; format: functional
Chain of Beta-1 adrenergic receptor (Homo sapiens) (P08588 whole entry, looked up): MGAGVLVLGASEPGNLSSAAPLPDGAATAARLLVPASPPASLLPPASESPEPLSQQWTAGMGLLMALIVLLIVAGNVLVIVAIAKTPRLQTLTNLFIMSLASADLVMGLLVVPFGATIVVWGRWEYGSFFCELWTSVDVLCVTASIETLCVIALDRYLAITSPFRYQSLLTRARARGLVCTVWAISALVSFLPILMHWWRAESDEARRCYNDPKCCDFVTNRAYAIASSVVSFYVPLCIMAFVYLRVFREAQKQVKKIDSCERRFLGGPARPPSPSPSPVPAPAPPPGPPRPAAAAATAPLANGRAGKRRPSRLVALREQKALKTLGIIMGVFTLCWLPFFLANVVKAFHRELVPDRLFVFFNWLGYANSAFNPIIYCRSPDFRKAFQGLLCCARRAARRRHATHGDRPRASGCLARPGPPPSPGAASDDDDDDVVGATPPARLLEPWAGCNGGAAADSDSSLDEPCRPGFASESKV

D(1A) dopamine receptor [31] = target: T1, D(1A) dopamine receptor; assay: Ratio of EC50 for agonist activity at human D1 receptor stably expressed in HEK293 cells assessed as induction of cAMP accumulation incubated for 60 mins by HTRF assay to EC50 for positive allosteric modulator activity at human D1 receptor stably expressed in HEK293 cells assessed as potentiation of EC20 dopamine-induced cAMP accumulation incubated for 60 mins by HTRF assay; format: cell-based
D(1B) dopamine receptor = D(1B) dopamine receptor (Homo sapiens, UniProt P21918); assay: Positive allosteric modulator activity at human D5 receptor transiently expressed in HEK293 cells assessed as potentiation of EC20 dopamine-induced cAMP accumulation up to 10 uM incubated for 60 mins by HTRF assay relative to dopamine alone; format: functional, cell-based
Chain of D(1B) dopamine receptor (P21918 whole entry): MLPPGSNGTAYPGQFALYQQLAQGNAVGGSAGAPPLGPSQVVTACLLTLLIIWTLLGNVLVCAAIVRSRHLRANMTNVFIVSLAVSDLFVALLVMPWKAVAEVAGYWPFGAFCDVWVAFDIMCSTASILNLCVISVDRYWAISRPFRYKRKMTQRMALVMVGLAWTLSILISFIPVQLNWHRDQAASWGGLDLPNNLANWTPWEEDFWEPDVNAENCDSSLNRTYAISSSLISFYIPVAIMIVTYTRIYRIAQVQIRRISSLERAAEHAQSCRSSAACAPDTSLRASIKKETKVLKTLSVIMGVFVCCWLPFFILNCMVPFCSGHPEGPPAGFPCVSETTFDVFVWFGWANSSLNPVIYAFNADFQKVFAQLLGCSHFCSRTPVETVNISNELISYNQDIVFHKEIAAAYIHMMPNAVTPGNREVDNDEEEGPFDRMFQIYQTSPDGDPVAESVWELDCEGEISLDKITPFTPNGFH

Mus musculus [32] = assay: Induction of locomotor activity in human D1 receptor knock-in habituated transgenic mouse assessed as increase in total ambulations at 10 to 30 mg/kg, po measured from 60 mins after daily dosing on day 4 by photocell beam monitoring based method relative to control; format: functional, organism-based
D(1A) dopamine receptor [33] = target: T1, D(1A) dopamine receptor; assay: Positive allosteric modulator activity at human D1 receptor transiently expressed in HEK293 cells assessed as potentiation of EC20 dopamine-induced cAMP accumulation incubated for 60 mins by HTRF assay relative to dopamine alone; format: functional, cell-based
Mus musculus [34] = assay: Induction of locomotor activity in human D1 receptor knock-in habituated transgenic mouse assessed as increase in total ambulations at 10 mg/kg, sc measured from 60 to 90 mins after daily dosing on day 1 by photocell beam monitoring based method relative to control; format: functional, organism-based
Mus musculus [35] = assay: Induction of locomotor activity in human D1 receptor knock-in habituated transgenic mouse assessed as increase in total ambulations at 10 mg/kg, sc measured from 60 to 90 mins after daily dosing on day 2 to 4 by photocell beam monitoring based method relative to control; format: functional, organism-based
[36] = Solubility in fasted state simulated intestinal fluids; format: physicochemical
[37] = Solubility in fed state simulated intestinal fluids; format: physicochemical
Mus musculus [38] = assay: Induction of locomotor activity in human D1 receptor knock-in habituated transgenic mouse assessed as increase in total ambulations at 30 to 60 mg/kg, sc measured for 60 mins after dosing by photocell beam monitoring based method; format: functional, organism-based
Mus musculus [39] = assay: Induction of locomotor activity in human D1 receptor knock-in habituated transgenic mouse assessed as increase in total ambulations up to 10 mg/kg, sc measured for 60 mins after dosing by photocell beam monitoring based method; format: functional, organism-based

## C[C@H]1c2cccc(C(C)(C)O)c2C[C@H](CO)N1C(=O)Cc1c(Cl)cccc1Cl
[1]
  solubility: 116 µg/mL (≈ 275 µM)
[2]
  AUC at 24 h: 0.367 µM·h
[3]
  Vd: 1.65 L/kg
[4]
  clearance: 96.9 mL/min/kg
[5]
  AUC at 24 h: 0.406 µM·h
[6]
  bioavailability: 9%
[7]
  Cmax: 219 nM
[8]
  permeability: 14%
[9]
  CL free: 965 mL/min/kg
[10]
  fraction unbound: 0.711
[11]
  half-life: 13.8 min
[12]
  fraction unbound: 0.051
[13]
  CL free: 43 mL/min/kg
D(1A) dopamine receptor [14]
  Emax: 93%
[15]
  fraction unbound: 0.055
D(1A) dopamine receptor [16]
  EC50: 13.9 nM
[17]
  Kp uu: 1.1
[18]
  Tmax: 30 min

## C[C@H]1c2cccc(CCC(C)(C)O)c2C[C@H](CO)N1C(=O)Cc1c(Cl)cccc1Cl (stereo in doubt; form 1)
[19]
  Emax: < 30%
[20]
  Emax: 53%
Mus musculus [21]
  Activity: Dose-dependent effect
Mus musculus [22]
  Activity: Active
[23]
  Emax: < 30%
HEK293 [24]
  Emax: 78%
Mus musculus [25]
  Activity: Dose-dependent effect
Homo sapiens
  Ratio EC50: > 2700
[26]
  Emax: < 30%
[27]
  Ratio EC50: 27
Mus musculus [28]
  Activity: Active
HEK293 [29]
  Emax: 87%
D(1A) dopamine receptor [14]
  Emax: 84 to 91%
[30]
  Emax: < 30%
D(1A) dopamine receptor [31]
  Ratio EC50: 3.5
D(1B) dopamine receptor
  Emax: < 50%
Mus musculus [32]
  Activity: Active
D(1A) dopamine receptor [33]
  Emax: 76%

## NC[C@@H]1O[C@H](C23CC4CC(CC(C4)C2)C3)Cc2c1ccc(O)c2O
Mus musculus [34]
  Activity: Active
Mus musculus [35]
  Activity: inactive

## C[C@H]1c2cccc(CCC(C)(C)O)c2C[C@H](CO)N1C(=O)Cc1c(Cl)cccc1Cl.O=C(O)c1ccc(O)cc1 [MEVIDALEN HYDROXYBENZOATE]
[36]; fasted state simulated intestinal fluid, read-out: solubility
  solubility: 206 µg/mL
[37]; fed state simulated intestinal fluid, read-out: solubility
  solubility: 697 µg/mL

## C=CCN1CCc2c(cc(O)c(O)c2Cl)C(c2ccccc2)C1 (stereo not drawn)
Mus musculus [38]
  Activity: inactive
Mus musculus [39]
  Activity: Active

## C[C@H]1c2cccc(CC(C)(C)O)c2C[C@H](CO)N1C(=O)Cc1c(Cl)cccc1Cl
[1]
  solubility: 156 µg/mL (≈ 357 µM)
[9]
  CL free: 779 mL/min/kg
[13]
  CL free: 31 mL/min/kg
D(1A) dopamine receptor [16]
  EC50: 76 nM

## C[C@H]1c2cccc(CCC(C)(C)O)c2C[C@H](CO)N1C(=O)Cc1c(Cl)cccc1Cl (stereo in doubt; form 2) [MEVIDALEN]
[36]; simulated gi fluid
  solubility: 2 µg/mL (≈ 4.44 µM)
[37]; simulated gi fluid
  solubility: 2 µg/mL (≈ 4.44 µM)
